Data: patent US10383938B2 (priority 2010, dated 2019)
“And” between values parts separate entries of the source, which are not always exact repeats. Identical values can stand only once.

How the values were obtained:
HA-specific IgG2a = test system: HA-specific IgG2a; design: species or system mice; details: mouse, in vivo, sc, 1 mg/kg
[1] = test system: HA-specific IgG1 and IgG2a; design: species or system Balb/c male mice; details: mouse, in vivo

CCCCCCCCCCCCCCCCCC(=O)NCCCCOn1c(CCCC)nc2c(N)nc3ccccc3c21 [N-(4-{[4-amino-2-butyl-1H-imidazo[4,5-c]quinolin-1-yl]oxy}butyl)octadecanamide]
HA Specific IgG2a, Serum Dilution End Point (HA-specific IgG2a): 1.42E+04
IgG1 End Point [1]: 1.7E7 and 1.4E7 and 1.1E7
antibody response to HA (in words) ([1]; 0.1 mg/kg): greatly enhanced the antibody response

CCOCc1nc2c(N)nc3ccccc3c2n1CC(C)(C)O [Resiquimod, resiquimod, reference compound]
HA Specific IgG2a, Serum Dilution End Point (HA-specific IgG2a): 1.00E+05
